In patent US10407410B2, “Pyridin-3-yl acetic acid derivatives as inhibitors of human immunodeficiency virus replication” (priority 2016, dated 2019):

What follows are compounds tested on NL-RLuc virus (HIV) (assay: Inhibition of HIV replication (NL-RLuc luciferase reporter virus in MT-2 cells)). Details: Human immunodeficiency virus 1, MT2, 120 h.
Format: cell-based
From the text: Inhibition of HIV Replication
A recombinant NL-RLuc proviral clone was constructed in which a section of the nef gene from NL4-3 was replaced with the Renilla Luciferase gene. This virus is fully infectious and can undergo multiple cycles of replication in cell culture. In addition, the luciferous reporter provides a simple and easy method for quantitating the extent of virus growth and consequently, the antiviral activity of test compounds. The plasmid pNLRLuc contains the proviral NL-Rluc DNA cloned into pUC18 at the PvuII site. The NL-RLuc virus was prepared by transfection of 293T cells with the plasmid pNLRLuc. Transfections were performed using the LipofectAMINE PLUS kit from Invitrogen (Carlsbad, Calif.) according to the manufacturer and the virus generated was titered in MT-2 cells. For susceptibility analyses, the titrated virus was used to infect MT-2 cells in the presence of compound, and after 5 days of incubation, cells were processed and quantitated for virus growth by the amount of expressed luciferase. Assay media was RPMI 1640 supplemented with 10% heat inactivated fetal bovine serum (FBS), 100 units/ml penicillin G/100 units/ml streptomycin, 10 mM HEPES buffer pH 7.55 and 2 mM L-glutamine. The results from at least 2 experiments were used to calculate the EC50 values. Luciferase was quantitated using the Dual Luciferase kit from Promega (Madison, Wis.). Susceptibility of viruses to compounds was determined by incubation in the presence of serial dilutions of the compound. The 50% effective concentration (EC50) was calculated by using the exponential form of the median effect equation where (Fa)=1/[1+(ED50/drug conc.)^m] (Johnson V A, Byington R T. Infectivity Assay. In Techniques in HIV Research. ed. Aldovini A, Walker B D. 71-76. New York: Stockton Press. 1990).

Point of comparison: `Cc1ccc(C[C@H]2CCc3cc(-c4c(C)nc(C)c([C@H](OC(C)(C)C)C(=O)O)c4N4CCC(C)(C)CC4)ccc3O2)c(F)c1` [Example 31, (S)-2-tert-Butoxy-2-(4-(4,4-dimethylpiperidin-1-yl)-5-((R)-2-(2-fluoro-4-methylbenzyl)chroman-6-yl)-2,6-dimethylpyridin-3-yl)acetic acid], EC50 3 nM. Against it:
- Cc1nc(C)c([C@H](OC(C)(C)C)C(=O)O)c(N2CCC(C)(C)CC2)c1-c1ccc2c(c1)CC/C(=C\c1ccc(F)cc1)C2 [Example 25, (S,E)-2-(tert-Butoxy)-2-(4-(4,4-dimethylpiperidin-1-yl)-5-(6-(4-fluorobenzylidene)-5,6,7,8-tetrahydronaphthalen-2-yl)-2,6-dimethylpyridin-3-yl)acetic acid] — 1.7-fold higher, 5 nM
- Cc1nc(C)c([C@H](OC(C)(C)C)C(=O)O)c(N2CCC(C)(C)CC2)c1-c1ccc2sc(C(=O)O)cc2c1 [Example 6, (S)-5-(5-(tert-butoxy(carboxy)methyl)-4-(4,4-dimethylpiperidin-1-yl)-2,6-dimethylpyridin-3-yl)benzo[b]thiophene-2-carboxylic acid] — 22000-fold higher, 66000 nM
- Cc1cccc(C2CCc3cc(-c4c(CO)nc(C)c([C@H](OC(C)(C)C)C(=O)O)c4N4CCC(C)(C)CC4)ccc3O2)n1 (stereo partly drawn) [Example 45, (2S)-2-tert-Butoxy-2-(4-(4,4-dimethylpiperidin-1-yl)-6-(hydroxymethyl)-2-methyl-5-(2-(6-methylpyridin-2-yl)chroman-6-yl)pyridin-3-yl)acetic acid] — 2.3-fold higher, 7 nM
- Cc1nc(C)c([C@H](OC(C)(C)C)C(=O)O)c(N2CCC(C)(C)CC2)c1-c1ccc2c(c1)CC[C@H](Cc1ccc(F)cc1)O2 [Example 35, (S)-2-tert-Butoxy-2-(4-(4,4-dimethylpiperidin-1-yl)-5-((R)-2-(4-fluorobenzyl)chroman-6-yl)-2,6-dimethylpyridin-3-yl)acetic acid] — the same, 3 nM
- Cc1nc(C)c([C@H](OC(C)(C)C)C(=O)O)c(N2CCC(C)(C)CC2)c1-c1ccc2cc[nH]c2c1 [Example 4, (S)-2-(tert-butoxy)-2-(4-(4,4-dimethylpiperidin-1-yl)-5-(1H-indol-6-yl)-2,6-dimethylpyridin-3-yl)acetic acid] — 78-fold higher, 233 nM
- Cc1nc(C)c([C@H](OC(C)(C)C)C(=O)O)c(N2CCC(C)(C)CC2)c1-c1ccc2c(c1)OCCN2C [Example 9, (S)-2-(tert-butoxy)-2-(4-(4,4-dimethylpiperidin-1-yl)-2,6-dimethyl-5-(4-methyl-3,4-dihydro-2H-benzo[b][1,4]oxazin-7-yl)pyridin-3-yl)acetic acid] — 29-fold higher, 87 nM
- Cc1ccc(C[C@@H]2CCc3cc(-c4c(C)nc(C)c([C@H](OC(C)(C)C)C(=O)O)c4N4CCC(C)(C)CC4)ccc3O2)c(F)c1 [Example 30, (S)-2-tert-Butoxy-2-(4-(4,4-dimethylpiperidin-1-yl)-5-((S)-2-(2-fluoro-4-methylbenzyl)chroman-6-yl)-2,6-dimethylpyridin-3-yl)acetic acid] — 1.7-fold higher, 5 nM
- Cc1nc(CO)c(-c2ccc3c(c2)CC[C@H](Cc2ccc(F)cc2)O3)c(N2CCC(C)(C)CC2)c1[C@H](OC(C)(C)C)C(=O)O [Example 37, (S)-2-tert-Butoxy-2-(4-(4,4-dimethylpiperidin-1-yl)-5-((R)-2-(4-fluorobenzyl)chroman-6-yl)-6-(hydroxymethyl)-2-methylpyridin-3-yl)acetic acid] — 3-fold lower, 1 nM
- Cc1cccc(C2CCc3cc(-c4c(C)nc(C)c([C@H](OC(C)(C)C)C(=O)O)c4N4CCC(C)(C)CC4)ccc3O2)n1 (stereo partly drawn) [Example 44, (2S)-2-tert-Butoxy-2-(4-(4,4-dimethylpiperidin-1-yl)-2,6-dimethyl-5-(2-(6-methylpyridin-2-yl)chroman-6-yl)pyridin-3-yl)acetic acid] — 2.7-fold higher, 8 nM
- Cc1nc(C)c([C@H](OC(C)(C)C)C(=O)O)c(N2CCC(C)(C)CC2)c1-c1ccc2[nH]c(=O)cc(OCc3ccc(F)cc3)c2c1 [Example 18, (S)-2-(tert-butoxy)-2-(4-(4,4-dimethylpiperidin-1-yl)-5-(4-((4-fluorobenzyl)oxy)-2-oxo-1,2-dihydroquinolin-6-yl)-2,6-dimethylpyridin-3-yl)acetic acid] — 170-fold higher, 504 nM
- COc1ccc(S(=O)(=O)N2Cc3ccc(-c4c(C)nc(C)c([C@H](OC(C)(C)C)C(=O)O)c4N4CCC(C)(C)CC4)cc3C2)cc1 [Example 24, (S)-2-(tert-butoxy)-2-(4-(4,4-dimethylpiperidin-1-yl)-5-(2-((4-methoxyphenyl)sulfonyl)isoindolin-5-yl)-2,6-dimethylpyridin-3-yl)acetic acid] — 3.3-fold higher, 10 nM
- Cc1nc(C)c([C@H](OC(C)(C)C)C(=O)O)c(N2CCC(C)(C)CC2)c1-c1ccc2c(c1)C(=O)C(Cc1ccc(F)cc1)(Cc1ccc(F)cc1)C(=O)N2 [Example 19, (S)-2-(5-(3,3-bis(4-fluorobenzyl)-2,4-dioxo-1,2,3,4-tetrahydroquinolin-6-yl)-4-(4,4-dimethylpiperidin-1-yl)-2,6-dimethylpyridin-3-yl)-2-(tert-butoxy)acetic acid] — 80-fold higher, 240 nM
- Cc1nc(C)c([C@H](OC(C)(C)C)C(=O)O)c(N2CCC(C)(C)CC2)c1-c1ccc2c(c1)CNC2=O [Example 11, (S)-2-(tert-butoxy)-2-(4-(4,4-dimethylpiperidin-1-yl)-2,6-dimethyl-5-(1-oxoisoindolin-5-yl)pyridin-3-yl)acetic acid] — 560-fold higher, 1680 nM
- Cc1nc(CO)c(-c2ccc3c(c2)CC[C@@H](Cc2ccccc2)O3)c(N2CCC(C)(C)CC2)c1[C@H](OC(C)(C)C)C(=O)O [Example 33, (S)-2-(5-((S)-2-Benzylchroman-6-yl)-4-(4,4-dimethylpiperidin-1-yl)-6-(hydroxymethyl)-2-methylpyridin-3-yl)-2-tert-butoxyacetic acid] — 2.3-fold higher, 7 nM
- Cc1nc(C)c([C@H](OC(C)(C)C)C(=O)O)c(N2CCC(C)(C)CC2)c1-c1ccc2c(c1)CN(C(=O)c1ccc(F)cc1)C2 [Example 22, (S)-2-(tert-butoxy)-2-(4-(4,4-dimethylpiperidin-1-yl)-5-(2-(4-fluorobenzoyl)isoindolin-5-yl)-2,6-dimethylpyridin-3-yl)acetic acid] — 18-fold higher, 53 nM
- Cc1nc(C)c([C@H](OC(C)(C)C)C(=O)O)c(N2CCC(C)(C)CC2)c1-c1ccc2[nH]c(=O)cc(O)c2c1 [Example 12, (S)-2-(tert-butoxy)-2-(4-(4,4-dimethylpiperidin-1-yl)-5-(4-hydroxy-2-oxo-1,2-dihydroquinolin-6-yl)-2,6-dimethylpyridin-3-yl)acetic acid] — 1700-fold higher, 4960 nM
- Cc1nc(C)c([C@H](OC(C)(C)C)C(=O)O)c(N2CCC(C)(C)CC2)c1-c1ccc2c(c1)OCCO2 [Example 3, (S)-2-(tert-butoxy)-2-(5-(2,3-dihydrobenzo[b][1,4]dioxin-6-yl)-4-(4,4-dimethylpiperidin-1-yl)-2,6-dimethylpyridin-3-yl)acetic acid] — 34-fold higher, 101 nM
- Cc1nc(C)c([C@H](OC(C)(C)C)C(=O)O)c(N2CCC(C)(C)CC2)c1-c1ccc2c(c1)CCN(Cc1ccc(F)cc1)C2=O [Example 14, (S)-2-(tert-butoxy)-2-(4-(4,4-dimethylpiperidin-1-yl)-5-(2-(4-fluorobenzyl)-1-oxo-1,2,3,4-tetrahydroisoquinolin-6-yl)-2,6-dimethylpyridin-3-yl)acetic acid] — 2-fold higher, 6 nM
- Cc1nc(C)c([C@H](OC(C)(C)C)C(=O)O)c(N2CCC(C)(C)CC2)c1-c1ccc2c(c1)CC[C@](C)(Cc1ccc(F)cc1)O2 [Example 38, (S)-2-tert-Butoxy-2-(4-(4,4-dimethylpiperidin-1-yl)-5-((R)-2-(4-fluorobenzyl)-2-methylchroman-6-yl)-2,6-dimethylpyridin-3-yl)acetic acid] — within 1.5-fold, 4 nM
- Cc1nc(C)c([C@H](OC(C)(C)C)C(=O)O)c(N2CCC(C)(C)CC2)c1-c1ccc2c(c1)CC[C@@H](Cc1ccccc1)O2 [Example 32, (S)-2-(5-((S)-2-Benzylchroman-6-yl)-4-(4,4-dimethylpiperidin-1-yl)-2,6-dimethylpyridin-3-yl)-2-tert-butoxyacetic acid] — 1.5-fold lower, 2 nM
- Cc1nc(C)c([C@H](OC(C)(C)C)C(=O)O)c(N2CCC(C)(C)CC2)c1-c1ccc2c(c1)CCC2 [Example 5, (S)-2-(tert-butoxy)-2-(5-(2,3-dihydro-1H-inden-5-yl)-4-(4,4-dimethylpiperidin-1-yl)-2,6-dimethylpyridin-3-yl)acetic acid] — 19-fold higher, 56 nM
- CCOc1ccc(S(=O)(=O)N2Cc3ccc(-c4c(C)nc(C)c([C@H](OC(C)(C)C)C(=O)O)c4N4CCC(C)(C)CC4)cc3C2)cc1 [Example 23, (S)-2-(tert-butoxy)-2-(4-(4,4-dimethylpiperidin-1-yl)-5-(2-((4-ethoxyphenyl)sulfonyl)isoindolin-5-yl)-2,6-dimethylpyridin-3-yl)acetic acid] — 5.7-fold higher, 17 nM
- Cc1nc(C)c([C@H](OC(C)(C)C)C(=O)O)c(N2CCC(C)(C)CC2)c1-c1cnc2ccccc2c1 [Example 2, (S)-2-(tert-butoxy)-2-(4-(4,4-dimethylpiperidin-1-yl)-2,6-dimethyl-5-(quinolin-3-yl)pyridin-3-yl)acetic acid] — 24-fold higher, 73 nM
